Experimental data: PubChem BioAssay (NCI)
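1) Cells in 96-well plates. 2) Compound, 48 h, 5 concentrations. 3) Linear interpolation between surrounding doses. 4) Unreached endpoint = highest concentration. GI50 marks 50% less growth. TGI: total growth inhibition.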 Active and inactive are the calls of the source. Rule as the data show it: active = GI50 below about 0.43 µM; inactive = the rest.

Assays:
Experiment in all cases: DTP human tumour cell line panel, 48 h
UACC-62 melanoma = test system: UACC-62 melanoma
OVCAR-8 ovarian = test system: OVCAR-8 ovarian
SK-MEL-5 melanoma = test system: SK-MEL-5 melanoma
XF 498 CNS = test system: XF 498 CNS
MOLT-4 leukemia = test system: MOLT-4 leukemia
ACHN renal = test system: ACHN renal
HCT-116 colon = test system: HCT-116 colon
DMS 114 small cell lung = test system: DMS 114 small cell lung
BT-549 breast = test system: BT-549 breast
HS 578T breast = test system: HS 578T breast

| Structure (SMILES) | TGI (UACC-62 melanoma) | TGI (OVCAR-8 ovarian) | TGI (SK-MEL-5 melanoma) | TGI (XF 498 CNS) | TGI (MOLT-4 leukemia) | TGI (ACHN renal) | TGI (HCT-116 colon) | TGI (DMS 114 small cell lung) | TGI (BT-549 breast) | TGI (HS 578T breast) | GI50 (UACC-62 melanoma) | GI50 (OVCAR-8 ovarian) | GI50 (SK-MEL-5 melanoma) | outcome (XF 498 CNS) | GI50 (MOLT-4 leukemia) | GI50 (ACHN renal) | GI50 (HCT-116 colon) | GI50 (DMS 114 small cell lung) |
| --- | --- | --- | --- | --- | --- | --- | --- | --- | --- | --- | --- | --- | --- | --- | --- | --- | --- | --- |
| O=C(/C=C/c1c(O)ccc2ccccc12)c1ccccc1 | > 100 µM | > 100 µM | > 100 µM | > 100 µM | > 100 µM | > 100 µM | > 100 µM | > 100 µM | – | – | – | – | – | – | – | – | – | – |
| CCc1ccc(Nc2ccc([N+](=O)[O-])cc2[N+](=O)[O-])cc1 | > 100 µM | > 100 µM | > 100 µM | > 100 µM | > 100 µM | > 100 µM | > 100 µM | > 100 µM | – | – | – | – | – | – | – | – | – | – |
| CC(C)c1cc2c(O)c(c1)Cc1cc(C(C)C)cc(c1O)Cc1cc(C(C)C)cc(c1O)Cc1cc(C(C)C)cc(c1O)C2 | > 100 µM | > 100 µM | > 100 µM | > 100 µM | > 100 µM | – | > 100 µM | > 100 µM | – | – | – | – | – | – | – | – | – | – |
| COC(=O)C(=O)C(C(=O)C=C(C)C)C(=O)C(=O)Nc1ccc(C)cc1C (stereo unspecified) | > 100 µM | > 100 µM | > 100 µM | > 100 µM | > 100 µM | > 100 µM | > 100 µM | > 100 µM | – | – | – | – | – | – | – | – | – | – |
| CCOc1ccc2c(c1)[n+]([O-])c(-c1nc3ccccc3s1)c(N)[n+]2[O-] | > 100 µM | > 100 µM | 93.8 µM | 86.6 µM | > 100 µM | > 100 µM | – | > 100 µM | – | – | – | – | – | – | – | – | – | – |
| CC(C)c1ccc(C(c2ccc(OCC(=O)O)cc2)c2ccc(C(C)C)cc(=O)c2O)c(O)c(=O)c1 | 20.7 µM | 58.3 µM | 9.14 µM | 9.95 µM | 30.7 µM | 28 µM | 14.1 µM | 8.25 µM | – | – | – | – | – | – | – | – | – | – |
| O=c1[nH]c(=O)n(C2OC(CO)C(O)C(O)C2O)cc1F (stereo unspecified) | > 100 µM | > 100 µM | > 100 µM | > 100 µM | > 100 µM | > 100 µM | > 100 µM | > 100 µM | > 100 µM | > 100 µM | – | – | – | – | – | – | – | – |
| COC(C(O)c1ccc2c(c1)OCO2)P(=O)(c1ccccc1)c1ccccc1 (stereo unspecified) | > 100 µM | > 100 µM | > 100 µM | > 100 µM | > 100 µM | > 100 µM | > 100 µM | > 100 µM | – | – | – | – | – | – | – | – | – | – |
| OC/C=C(\I)CCCOCOCc1ccccc1 | > 100 µM | > 100 µM | 54.5 µM | 45.8 µM | 13.1 µM | > 100 µM | > 100 µM | 69 µM | – | – | – | – | – | – | – | – | – | – |
| C/C=C1/C(=C/c2[nH]c(/C=c3\[nH]/c(=C/C4=NC(=O)C(CC)=C4C)c(C)c3CCC(=O)O)c(CCC(=O)O)c2C)NC(=O)C1C (stereo unspecified) | > 150 µg/mL | > 150 µg/mL | > 150 µg/mL | – | > 150 µg/mL | > 150 µg/mL | > 150 µg/mL | > 150 µg/mL | – | – | > 150 µg/mL | > 150 µg/mL | > 150 µg/mL | inactive | > 150 µg/mL | > 150 µg/mL | > 150 µg/mL | > 150 µg/mL |
| CS(=O)(=O)c1cc(=O)c2ccccc2s1 | 27.3 µM | 6.22 µM | 28.5 µM | 4.4 µM | 3.92 µM | 5.68 µM | 4.05 µM | 11.2 µM | 35.6 µM | 68.8 µM | – | – | – | – | – | – | – | – |
| Cc1[nH]c2ccccc2c1C1Cc2ccccc2N1C(=O)/C(Cl)=C/c1ccccc1 (stereo unspecified) | > 100 µM | > 100 µM | > 100 µM | > 100 µM | > 100 µM | > 100 µM | > 100 µM | > 100 µM | – | – | – | – | – | – | – | – | – | – |
| N#C/C(=C\c1cc2ccccc2c2ccccc12)c1ccccc1 | 28.9 µM | > 100 µM | 19.7 µM | 12.5 µM | 28 µM | > 83.5 µM | 18.2 µM | > 36.1 µM | – | – | – | – | – | – | – | – | – | – |
| Clc1ccc(-c2c(C3=NCCCN3)nnn2-c2ccc(Cl)cc2)cc1 | 36 µM | > 88.2 µM | 35.9 µM | 53.5 µM | 60.9 µM | > 100 µM | > 75.6 µM | 49.5 µM | > 100 µM | > 59.5 µM | – | – | – | – | – | – | – | – |
| CCCCOC(=O)NC(=O)c1cn(C2CCCCC2)c(=O)[nH]c1=O | > 100 µM | > 100 µM | – | > 100 µM | > 100 µM | 67.3 µM | 50.1 µM | > 100 µM | – | – | – | – | – | – | – | – | – | – |
| C/C(=C1/CCC/C(=C(/C)c2ccccc2)C1=O)c1ccccc1 | > 100 µM | > 100 µM | 47.8 µM | 82 µM | 64.3 µM | > 100 µM | 55.5 µM | 70.3 µM | – | – | – | – | – | – | – | – | – | – |
| CC(C)N1CN(C(C(=O)N[C@@H]2C(=O)N3C2SC(C)(C)C3C(=O)O)c2ccccc2)CSC1=S (stereo partly specified) | > 100 µM | > 100 µM | > 100 µM | > 100 µM | > 100 µM | > 100 µM | > 100 µM | > 100 µM | – | – | – | – | – | – | – | – | – | – |
| COc1ccc(/C=C\c2cc(OC)c(OC)c(OC)c2)cc1OC(=O)NCCN(C)C | > 25.7 µM | 0.638 µM | 0.0474 µM | < 0.0001 µM | < 0.0494 µM | > 41.7 µM | – | < 0.0001 µM | – | – | – | – | – | – | – | – | – | – |
| O=C(Nc1ccc(Cl)cc1Cl)C(=O)C(C(=O)c1ccncc1)C1OC(=O)c2ccccc21 (stereo unspecified) | > 100 µM | > 100 µM | > 100 µM | > 100 µM | > 100 µM | > 100 µM | > 100 µM | > 100 µM | – | – | – | – | – | – | – | – | – | – |
